Data as given in a melting point compilation (Tetko et al.; mined from patent text by program, amines drawn as free bases though some values may be those of a salt).

Row | Structure (SMILES) | melting point
1 | CC(O)(c1ccccc1)c1cncs1 (stereo not drawn) | 86 to 87 °C
2 | O=C(O)CCCc1ccc(NS(=O)(=O)c2cccc(Cl)c2)cn1 | 141 to 142 °C
3 | CC(C)(C)OC(=O)NCC(=O)N1[C@@H](C(=O)OC(C)(C)C)C[C@H](C(=O)O)[C@H]1c1ccccc1 (racemic) | 105 °C
4 | COC(=O)c1ccc(S(C)(=O)=O)c(C=NO)c1Cl | 126 to 128 °C
5 | Oc1cccc(CCCn2ccnc2)c1 | 110 to 111 °C
6 | CCSC1CC2(C)C(CCC3C4CCC(C(C)=O)C4(C)CC(=O)C32)CC1O (stereo not drawn) | 170 to 173 °C
7 | Cn1c(C(F)(F)F)cc(=O)n(-c2ccc(Cl)c(C3OCCCO3)c2)c1=O | 87 to 92 °C
8 | C=CCn1c(NNC(=O)CCCl)nc2ccccc2c1=O | 151 to 153 °C
9 | CN(CC1(C)Cn2cc([N+](=O)[O-])nc2O1)C(=O)OCc1ccc(F)cc1 (stereo not drawn) | 169 to 170 °C
10 | O=CNc1ccccc1C1=NN(c2ccc(Cl)cc2)C(=O)C1 | 170 to 172 °C
11 | COC(=O)c1c(C(F)F)nc(C(F)(F)F)c(-n2cccc2)c1C1CCC1 | 70 to 71 °C
12 | CCCCC1(CCn2ccnc2)SCCS1 | 105 to 108 °C
13 | COc1cc2c(cc1OC(C)C)OC(C)(C)C(Cl)=C2Cl | 80 to 85 °C
14 | CC(C)(C)OC(=O)N1CCN(C(=O)OC(C)(C)C)C(C(O)(Cc2ccccc2)Cc2ccccc2)C1 (stereo not drawn) | 150 °C
15 | Cc1c(NC(=O)CC(C)(C)C)cc2c(c1C)OC(C)(C)C2c1ccc(C(C)C)cc1 (stereo not drawn) | 172 to 173 °C
16 | O=C1NCCNC1Cc1ccccc1 (stereo not drawn) | 92 to 93 °C
17 | Clc1ccc(CN2CCOCC2)c(N=C2CCCCN2)c1 | 121 to 122 °C
18 | CC(=O)N1CCC(C(=O)N[C@@H](CC(C)C)C(=O)N[C@@H](C(C)C)[C@@H](O)c2c(-c3ccccc3)c2=O)CC1 | 120 to 124 °C
19 | CCN(CC)CCNC(=O)c1ccc([N+](=O)[O-])cc1OC | 59.3 °C
20 | O=[N+]([O-])c1ccc(C(c2cccs2)C(Cc2cccs2)N2CCC(Cc3ccccc3)CC2)cc1 (stereo not drawn) | 124 to 126 °C
21 | O=[N+]([O-])c1ccc2c(C3=CCN(C[C@H](O)COc4cccc5[nH]ccc45)CC3)c[nH]c2c1 | 225 to 230 °C
22 | O=[N+]([O-])c1sc(I)nc1I | 135 °C

Continued, values first:

Row | melting point | Structure (SMILES)
23 | 168 to 171 °C | Cn1cc(-c2ccccc2)c(=O)c(-c2ccccc2C(F)(F)F)c1
24 | 207 to 208 °C | NC(=O)NC(=O)c1ccc2ccccc2c1
25 | 98 to 99 °C | Cc1nccn1-c1nc(-c2ccc(Cl)cc2)c(CCCCO)s1
26 | 131 to 132 °C | CCOC(=O)c1sc(Oc2ccc(C(C)=O)c(O)c2)c2c1CCc1cnn(C)c1-2
27 | 128 °C | CCCCc1ccc(OC)c(-c2csc(NC(=O)c3ccc(C(=O)N4CCC(N5CCC(NC(=O)CC)C5)CC4)cc3)n2)c1 (stereo not drawn)
28 | 79 to 80 °C | Cc1ccc(C)c(OCCCC(C)(C)C(=O)Nc2ccc(F)cc2F)c1
29 | 125 °C | CC(C)(C)OC(=O)C[C@H](NC(=O)c1cccc(NC(=O)Cc2ccc(C(=N)N)cc2)c1)C(=O)N[C@@H](Cc1ccccc1)C(=O)OC(C)(C)C
30 | 224 to 226 °C | O=C(O)CCc1oc(-n2cnc3ccccc32)nc1-c1ccc(C(F)(F)F)cc1
31 | 218 to 221 °C | Cc1c(C#N)c(NC(=O)c2ccccc2)n(C(C)c2ccccc2)c1C (stereo not drawn)
32 | 94 to 96 °C | COc1cc2c(cc1OCc1ccccc1)CN(Cc1ccccc1)C2
33 | 125 to 127 °C | CC1(C2CC2)NC(=O)Nc2ccc(-c3cccc(Cl)c3)cc21 (stereo not drawn)
34 | 64 to 65 °C | COc1cc(CCCCCCC=O)ccc1OCc1nc(-c2ccccc2)oc1C
35 | 124 to 125 °C | CCOc1ccc(C(=O)c2c(-c3ccc(OC)cc3)sc3cc(OC)ccc23)cc1
36 | 212 to 214 °C | CC(=O)Nc1ccc2c(-c3ccccc3)c([N+](=O)[O-])oc2c1
37 | 153 to 154 °C | COc1ccc(CNc2nc(N3CCCC3CO)nc(OC)c2C(=O)NCc2ncccn2)cc1Cl (stereo not drawn)
38 | 103 to 106 °C | OCCC(c1ccccc1)(c1ccccc1)c1ccccc1
